Experimental data as given in patent US6762227B1, “Inhibition of marine biofouling of surfaces” (I-Tech AB, priority 1999, dated 2004).
Where two headings read alike, the source gives them in different places.

How the values were obtained:
cyprid larvae [1] = conditions: cleaned, as Example 3
Protocol: Petri dishes of hydrophilic polystyrene were filled with a solution of medetomidine in varying concentrations (0 ng/ml 10 ng/ml, 1 μg/ml and 10 μg/ml). Like in Example 1, one Petri dish with no medetomidine was used as control. After a 24 hour incubation period in room temperature the dishes were cleaned thoroughly with seawater. The dishes were then incubated with cyprid larvae in amounts of approximately 20 larvae/dish. Readings were taken under microscope after 7 days, and the larvae were classified as either settled, free-swimming or dead.
Example 3 was repeated, with the difference that Petri dishes of hydrophobic polystyrene were used instead of hydrophilic dishes.

[2] = test system: tube building polychaetes (Hydroides elegans); conditions: for Dead / Settled / Swimming: incubated two days
Protocol: The polychaete larvae were incubated for two days in Petri dishes containing sea water and were then classified as either settled, free swimming or dead, like in Example 1. The water originated from the coast outside Sydney, Australia, and the experiment was carried out in May 1999.

[3] = test system: Cyprid larvae from Balanus improvisus
Protocol: Cyprid larvae from Balanus improvisus were transferred to Petri dishes containing seawater from the Swedish west coast and medetomidine in various concentrations (0.1 nM, 1 nM, 10 nM, 100 nM and 1 μM). In addition, for control purposes, cyprid larvae were transferred to a Petri dish containing seawater only. After 11 days the cyprids were counted and classified as either 1) settled (established) on the surface of the Petri dish, 2) swimming, i.e. living, not established, or 3) dead. The results in the table are expressed in percentage of the total number of organisms in each group (=n).
This example corresponds to Example 1 with the exception that medetomidine was replaced by clonidine in the concentrations defined in Table 2 below.

cyprid larvae [4] = conditions: for Dead / Settled / Swimming: cleaned, reading after 7 days
Protocol: Petri dishes of hydrophilic polystyrene were filled with a solution of medetomidine in varying concentrations (0 ng/ml 10 ng/ml, 1 μg/ml and 10 μg/ml). […] After a 24 hour incubation period in room temperature the dishes were cleaned thoroughly with seawater. The dishes were then incubated with cyprid larvae in amounts of approximately 20 larvae/dish. Readings were taken under microscope after 7 days, and the larvae were classified as either settled, free-swimming or dead.

[5] = test system: acorn barnacles (Balanus improvisus); conditions: for Number of Balanus improvisus/10 cm^2: acrylate-based paint with 0.02% by weight medetomidine
Protocol: Medetomidine was added to an acrylate-based paint formula to a concentration of 0.02% by weight (or 170 μg/ml). The paint was then applied on 10 test surfaces dimensioned 10×10 cm^2. The surfaces were allowed to dry at room temperature and were then mounted on racks, which were placed at a depth of about one meter in a bay in the sea offshore from Strömstad, Sweden, and were allowed to remain there during August and September of 1999. After 2, 4 and 8 weeks, respectively, the test surfaces were removed from the sea and the number of acorn barnacles (Balanus improvisus) were counted.

[6] = hydrophobic polystyrene dish pre-incubated with medetomidine 1 ng/ml
[7] = hydrophobic polystyrene dish pre-incubated with medetomidine 10 ng/ml
[8] = hydrophobic polystyrene dish pre-incubated with medetomidine 1000 ng/ml
[9] = hydrophobic polystyrene dish pre-incubated with medetomidine 10000 ng/ml
[10] = medetomidine 0.1 nM, after 11 days, % of total organisms
[11] = medetomidine 1 nM, after 11 days, % of total organisms
[12] = medetomidine 10 nM, after 11 days, % of total organisms
[13] = medetomidine 100 nM, after 11 days, % of total organisms
[14] = medetomidine 1000 nM, after 11 days, % of total organisms
[15] = hydrophilic polystyrene dish pre-incubated 24 h with medetomidine 1 ng/ml
[16] = hydrophilic polystyrene dish pre-incubated 24 h with medetomidine 10 ng/ml
[17] = hydrophilic polystyrene dish pre-incubated 24 h with medetomidine 1000 ng/ml
[18] = hydrophilic polystyrene dish pre-incubated 24 h with medetomidine 10000 ng/ml
[19] = clonidine 0.027 ng/ml, as Example 1
[20] = clonidine 0.27 ng/ml, as Example 1
[21] = clonidine 2.7 ng/ml, as Example 1
[22] = clonidine 27 ng/ml, as Example 1
[23] = clonidine 270 ng/ml, as Example 1

**Q.** How did the Dead (cyprid larvae [1]; [6]) turn out when `Cc1cccc(C(C)c2cnc[nH]2)c1C` (racemic) [medetomidine, (±)-4-[1-(2,3-dimethylphenyl)-ethyl]-1H-imidazole-mono-hydrogen chloride] was run?
**A.** Its Dead is 0%.

**Q.** What about the Settled (cyprid larvae [1]; [6]) of the same compound?
**A.** The Settled was 63.1%.

**Q.** And the Swimming (cyprid larvae [1]; [6])?
**A.** Its Swimming is 36.9%.

**Q.** And the Dead (cyprid larvae [1]; [7])?
**A.** The Dead was 2.1%.

**Q.** And the Settled (cyprid larvae [1]; [7])?
**A.** Its Settled is 33.3%.

**Q.** And the Swimming (cyprid larvae [1]; [7])?
**A.** The Swimming was 65%.

**Q.** What about the Dead (cyprid larvae [1]; [8]) of the same compound?
**A.** The Dead was 0%.

**Q.** And the Settled (cyprid larvae [1]; [8])?
**A.** The Settled was 0%.

**Q.** And the Swimming (cyprid larvae [1]; [8])?
**A.** Its Swimming is 100%.

**Q.** What about the Dead (cyprid larvae [1]; [9]) of the same compound?
**A.** Its Dead is 2.1%.

**Q.** And the Settled (cyprid larvae [1]; [9])?
**A.** The Settled was 0%.

**Q.** And the Swimming (cyprid larvae [1]; [9])?
**A.** Its Swimming is 97.9%.

**Q.** What about the “effect on settling of polychaete larvae” value ([2]; concentration span of from 0.1 nM to 100 μM) of the same compound?
**A.** The value was “significant inhibiting effect”.

**Q.** And the Dead ([2]; medetomidine 0.1 nM)?
**A.** Its Dead is 2.3%.

**Q.** And the Settled ([2]; medetomidine 0.1 nM)?
**A.** The Settled was 9.3%.

**Q.** What about the Swimming ([2]; medetomidine 0.1 nM) of the same compound?
**A.** The Swimming was 88.4%.

**Q.** What about the Dead ([2]; medetomidine 1 nM) of the same compound?
**A.** Its Dead is 5.4%.

**Q.** And the Settled ([2]; medetomidine 1 nM)?
**A.** The Settled was 5.4%.

**Q.** What about the Swimming ([2]; medetomidine 1 nM) of the same compound?
**A.** The Swimming was 89.2%.

**Q.** What about the Dead ([2]; medetomidine 10 nM) of the same compound?
**A.** Its Dead is 4.4%.

**Q.** And the Settled ([2]; medetomidine 10 nM)?
**A.** Its Settled is 0%.

**Q.** And the Swimming ([2]; medetomidine 10 nM)?
**A.** The Swimming was 95.6%.

**Q.** And the Dead ([2]; medetomidine 100 nM)?
**A.** The Dead was 20%.

**Q.** What about the Settled ([2]; medetomidine 100 nM) of the same compound?
**A.** The Settled was 0%.

**Q.** And the Swimming ([2]; medetomidine 100 nM)?
**A.** Its Swimming is 80%.

**Q.** And the Dead ([2]; medetomidine 1000 nM)?
**A.** The Dead was 45.7%.

**Q.** And the Settled ([2]; medetomidine 1000 nM)?
**A.** The Settled was 0%.

**Q.** And the Swimming ([2]; medetomidine 1000 nM)?
**A.** The Swimming was 54.3%.

**Q.** What about the Dead ([2]; medetomidine 100 000 nM) of the same compound?
**A.** The Dead was 100%.

**Q.** And the Settled ([2]; medetomidine 100 000 nM)?
**A.** The Settled was 0%.

**Q.** And the Swimming ([2]; medetomidine 100 000 nM)?
**A.** The Swimming was 0%.

**Q.** What about the “toxic effects on polychaete larvae” value ([2]; span from 100 nM to 100 μM) of the same compound?
**A.** Its value is “toxic effects appear”.

**Q.** What about the Dead [3, 10] of the same compound?
**A.** The Dead was 0%.

**Q.** What about the Settled [3, 10] of the same compound?
**A.** The Settled was 52%.

**Q.** And the Swimming [3, 10]?
**A.** The Swimming was 48%.

**Q.** What about the Dead [3, 11] of the same compound?
**A.** Its Dead is 0%.

**Q.** What about the Settled [3, 11] of the same compound?
**A.** Its Settled is 1.5%.

**Q.** And the Swimming [3, 11]?
**A.** Its Swimming is 98%.

**Q.** And the Dead [3, 12]?
**A.** The Dead was 0%.

**Q.** What about the Settled [3, 12] of the same compound?
**A.** The Settled was 0%.

**Q.** And the Swimming [3, 12]?
**A.** Its Swimming is 100%.

**Q.** And the Dead [3, 13]?
**A.** Its Dead is 0%.

**Q.** And the Settled [3, 13]?
**A.** The Settled was 0%.

**Q.** What about the Swimming [3, 13] of the same compound?
**A.** The Swimming was 100%.

**Q.** What about the Dead [3, 14] of the same compound?
**A.** Its Dead is 0%.

**Q.** And the Settled [3, 14]?
**A.** The Settled was 0%.

**Q.** And the Swimming [3, 14]?
**A.** The Swimming was 100%.

**Q.** What about the “number of established larvae” value ([3]; upon increased concentration of medetomidine (0.1 nM to 1 μM)) of the same compound?
**A.** Its value is “decreased upon increased concentration”.

**Q.** And the “number of dead cyprids” value ([3]; upon increased contents of medetomidine (0.1 nM to 1 μM))?
**A.** The value was “did not increase”.

**Q.** And the “number of settled acorn barnacles” value (cyprid larvae [4]; also at very low medetomidine incubation concentrations)?
**A.** Its value is “significant reduction”.

**Q.** What about the Dead (cyprid larvae [4]; [15]) of the same compound?
**A.** The Dead was 0%.

**Q.** What about the Settled (cyprid larvae [4]; [15]) of the same compound?
**A.** The Settled was 6.2%.

**Q.** What about the Swimming (cyprid larvae [4]; [15]) of the same compound?
**A.** The Swimming was 93.8%.

**Q.** And the Dead (cyprid larvae [4]; [16])?
**A.** Its Dead is 0%.

**Q.** What about the Settled (cyprid larvae [4]; [16]) of the same compound?
**A.** Its Settled is 0%.

**Q.** What about the Swimming (cyprid larvae [4]; [16]) of the same compound?
**A.** Its Swimming is 100%.

**Q.** And the Dead (cyprid larvae [4]; [17])?
**A.** The Dead was 0%.

**Q.** And the Settled (cyprid larvae [4]; [17])?
**A.** The Settled was 0%.

**Q.** What about the Swimming (cyprid larvae [4]; [17]) of the same compound?
**A.** Its Swimming is 100%.

**Q.** And the Dead (cyprid larvae [4]; [18])?
**A.** The Dead was 0%.

**Q.** What about the Settled (cyprid larvae [4]; [18]) of the same compound?
**A.** Its Settled is 0%.

**Q.** And the Swimming (cyprid larvae [4]; [18])?
**A.** The Swimming was 100%.

**Q.** What about the “Number of Balanus improvisus/10 cm^2” value ([5]; 2 weeks in the sea) of the same compound?
**A.** The value was 4.63 ± 1.04 /10 cm^2.

**Q.** What about the “Number of Balanus improvisus/10 cm^2” value ([5]; 4 weeks in the sea) of the same compound?
**A.** The value was 5.6 ± 1.4 /10 cm^2.

**Q.** And the “Number of Balanus improvisus/10 cm^2” value ([5]; 8 weeks in the sea)?
**A.** Its value is 148.1 ± 16.24 /10 cm^2.

**Q.** What about the “number of acorn barnacles on the test surfaces compared with the control surfaces” value ([5]; paint with 0.02% by weight medetomidine, 2, 4 and 8 weeks) of the same compound?
**A.** The value was “significant reduction”.

**Q.** For `Clc1cccc(Cl)c1NC1=NCCN1` [clonidine, 2-(2,6-di-chloro-anilino)-2-imidazoline], which Dead ([3]; Balanus improvisus, in vivo, 11 days, 0.027 ng/ml) is on record?
**A.** Its Dead is 0%.

**Q.** And the Dead ([3]; Balanus improvisus, in vivo, 11 days, 0.27 ng/ml)?
**A.** The Dead was 0%.

**Q.** And the Dead ([3]; Balanus improvisus, in vivo, 11 days, 2.7 ng/ml)?
**A.** The Dead was 1.7%.

**Q.** What about the Dead ([3]; Balanus improvisus, in vivo, 11 days, 27 ng/ml) of the same compound?
**A.** The Dead was 1.5%.

**Q.** What about the Dead ([3]; Balanus improvisus, in vivo, 11 days, 270 ng/ml) of the same compound?
**A.** Its Dead is 8.3%.

**Q.** What about the Settled [3, 19] of the same compound?
**A.** Its Settled is 36.7%.

**Q.** And the Swimming [3, 19]?
**A.** Its Swimming is 65.7%.

**Q.** What about the Settled [3, 20] of the same compound?
**A.** The Settled was 22.3%.

**Q.** And the Swimming [3, 20]?
**A.** The Swimming was 77.7%.

**Q.** What about the Settled [3, 21] of the same compound?
**A.** The Settled was 1.8%.

**Q.** What about the Swimming [3, 21] of the same compound?
**A.** Its Swimming is 96.5%.

**Q.** What about the Settled [3, 22] of the same compound?
**A.** The Settled was 0%.

**Q.** What about the Swimming [3, 22] of the same compound?
**A.** The Swimming was 98.5%.

**Q.** What about the Settled [3, 23] of the same compound?
**A.** The Settled was 0%.

**Q.** What about the Swimming [3, 23] of the same compound?
**A.** Its Swimming is 91.7%.
